Source: patent US11197862B2, “Methods of preventing toxicity of platinum drugs” (XOMICS BIOPHARMA, INC., priority 2015, dated 2021)
Entries after “also recorded” stand apart in the source; their conditions may differ.

Columns and labels:
[1] = test system: OCT2 and MATE1; assay: Buflomedil inhibition of OCT2 and MATE1 with metformin as substrate (FIG. 15A); type: cell-based, human
[2] = test system: Balb/c mice exposed to chronic treatment with Oxaliplatin; assay: Caudal nerve conduction study in chronic oxaliplatin neuropathy model; type: in vivo, mouse; details: for caudal nerve action potential amplitude / caudal nerve conduction velocity: OXA 3.5 mg/kg iv, 8 cycles ± BFMD 30 mg/kg ip + 15 mg/kg iv
Description: The development of peripheral neuropathy after chronic administration of drugs was assessed by evaluating the nerve conduction velocity (NCV) along caudal and digital nerve using an electromyography apparatus (Myto2 ABN Neuro, Firenze, Italy). Caudal NCV was determined by placing a couple of recording needle electrodes at the base of the tail and a couple of stimulating needle electrodes 3.5 cm distally to the recording points. Similarly, the digital NCV was determined by placing the recording electrodes close to the ankle bone and the stimulating electrodes close to the fourth toe near the digital nerve. The intensity, duration and frequency of stimulation were set up in order to obtain optimal results. All the neurophysiological determinations were performed under standard conditions in a temperature-controlled room (22+/−2° C.) and the animal under isoflurane anesthesia along the whole procedure with continuous monitoring of vital signs.

[3] = molecular target: T1, OCT2 (Homo sapiens, UniProt O15244); details: OCT2-mediated uptake; ASP+ 5 μM in HBSS; from Kido Y et al. J Med Chem 2011; cited from earlier work
T1 sequence (O15244 1-555): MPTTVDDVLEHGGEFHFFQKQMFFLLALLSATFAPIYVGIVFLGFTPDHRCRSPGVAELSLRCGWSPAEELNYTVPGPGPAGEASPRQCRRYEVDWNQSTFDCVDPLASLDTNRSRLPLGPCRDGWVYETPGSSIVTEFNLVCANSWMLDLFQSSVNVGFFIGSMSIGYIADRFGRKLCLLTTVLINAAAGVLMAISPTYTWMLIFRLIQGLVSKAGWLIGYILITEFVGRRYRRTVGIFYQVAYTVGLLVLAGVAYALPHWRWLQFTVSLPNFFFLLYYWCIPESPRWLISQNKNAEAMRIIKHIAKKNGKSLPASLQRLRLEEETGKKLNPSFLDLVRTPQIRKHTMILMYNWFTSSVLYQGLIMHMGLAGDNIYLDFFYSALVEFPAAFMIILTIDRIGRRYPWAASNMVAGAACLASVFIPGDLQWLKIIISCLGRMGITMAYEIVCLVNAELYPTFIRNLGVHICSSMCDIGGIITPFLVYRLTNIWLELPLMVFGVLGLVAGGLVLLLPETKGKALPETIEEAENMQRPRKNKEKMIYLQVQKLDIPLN

[4] = Published clinical pharmacokinetic data; details: from published Cmax and protein binding
[5] = test system: MDCK cells expressing OCT2, MATE1 and MATE2K; assay: LDH cytotoxicity of oxaliplatin in MDCK-II triple-transporter model; details: for effect on oxaliplatin induced cytotoxicity in OCT2 expressing cells: buflomedil 3 and 6 μM, dolutegravir 10 μM, erlotinib 6 μM, cimetidine 6 μM, FIG. 6
Description: A triple-transporter model for OCT2(SLC22A2), MATE1(SLC47A1), and MATE2-K(SLC47A2) was created by transfecting fully confluent MDCK-II cell monolayers with DNA mixture containing the plasmids encoding OCT2, MATE1, and MATE-2K at concentrations of 40, 15, and 5 ng/μl, respectively. The OCT2 was expressed on the basolateral cell membrane, and MATE1 and MATE2-K were expressed on the apical side of the cells. […] The apical medium was adjusted to pH 6.7 with 25 mM of 2-(N-morpholino) ethanesulfonic acid (MES).
After removal of the media, a drug-free medium was added in both sides. After incubation 24 hours, the medium was collected, and the lactate dehydrogenase (LDH) activity in the medium was measured using an LDH cytotoxicity assay kit (G-Biosciences. St. Louis, Mo.; or Biochain, Newark, Calif.), according to the manufacturers' instructions. Cytotoxicity was evaluated by measuring the LDH activity in the medium.
Cytotoxicity was tested using the same procedure described above.

[6] = molecular target: T2, MATE1 (Homo sapiens, UniProt Q96FL8); assay: Inhibition of MATE1-mediated oxaliplatin transport in human serum or 4% BSA HBSS
T2 sequence (Q96FL8 1-570): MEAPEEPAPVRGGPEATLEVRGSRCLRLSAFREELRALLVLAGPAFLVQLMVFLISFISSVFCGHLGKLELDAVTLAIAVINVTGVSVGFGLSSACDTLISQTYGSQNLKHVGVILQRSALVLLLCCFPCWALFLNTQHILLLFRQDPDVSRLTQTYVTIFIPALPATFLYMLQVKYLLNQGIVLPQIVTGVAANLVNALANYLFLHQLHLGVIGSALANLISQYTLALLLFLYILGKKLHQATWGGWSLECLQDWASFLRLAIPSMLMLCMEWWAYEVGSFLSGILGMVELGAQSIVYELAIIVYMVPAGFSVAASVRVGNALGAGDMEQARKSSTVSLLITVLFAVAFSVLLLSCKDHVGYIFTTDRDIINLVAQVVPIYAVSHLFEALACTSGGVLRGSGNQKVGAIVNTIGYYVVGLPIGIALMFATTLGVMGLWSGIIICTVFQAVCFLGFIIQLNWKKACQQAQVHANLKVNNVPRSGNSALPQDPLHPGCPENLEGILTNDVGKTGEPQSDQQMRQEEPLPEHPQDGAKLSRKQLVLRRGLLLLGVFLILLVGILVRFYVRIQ
Description: (§1) Fully confluent MDCK cell monolayers were transfected with either cDNA plasmids encoding the human transporter to be tested or a GFP control. […] The cells were then washed with ice-cold PBS and lysed with 50:50 acetonitrile:H2O. Intracellular content of the substrate was quantified by LC/MS/MS or a MicroBeta radiometric plate reader.

[7] = molecular target: MATE2K (Homo sapiens, UniProt Q86VL8); assay: Inhibition of MATE2K-mediated oxaliplatin transport in human serum or 4% BSA HBSS
Sequence of MATE2K (Q86VL8 1-566 isoform Q86VL8-3): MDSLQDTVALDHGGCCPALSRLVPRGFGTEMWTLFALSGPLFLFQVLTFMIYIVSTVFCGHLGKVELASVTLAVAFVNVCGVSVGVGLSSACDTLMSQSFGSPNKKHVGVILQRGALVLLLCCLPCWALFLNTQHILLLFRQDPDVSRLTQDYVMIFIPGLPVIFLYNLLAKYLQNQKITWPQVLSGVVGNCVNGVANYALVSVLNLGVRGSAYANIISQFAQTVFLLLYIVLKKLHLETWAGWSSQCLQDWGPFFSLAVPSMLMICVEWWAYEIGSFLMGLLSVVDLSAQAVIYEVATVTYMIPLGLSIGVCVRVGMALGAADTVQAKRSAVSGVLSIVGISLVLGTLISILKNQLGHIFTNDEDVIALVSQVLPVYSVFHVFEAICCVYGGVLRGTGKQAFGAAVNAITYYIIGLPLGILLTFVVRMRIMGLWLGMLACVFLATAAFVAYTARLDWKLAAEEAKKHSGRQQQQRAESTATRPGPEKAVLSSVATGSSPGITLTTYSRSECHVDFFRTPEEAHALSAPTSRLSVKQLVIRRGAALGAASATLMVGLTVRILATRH
Description: as §1

[8] = molecular target: T3, OCT2 over OCT1, OCT3 and MATE1 (Homo sapiens, UniProt O15244); assay: Inhibition of OCT2-mediated oxaliplatin transport in 100% human serum or HBSS containing 4% BSA (IC50,app); details: human, MDCK-II cells transfected with human transporters, fold higher potency (selectivity) for OCT2 over OCT1, OCT3 and MATE1 in transporting oxaliplatin, from IC50,app of Table 4
T3 sequence (O15244 1-555): T1 sequence (O15244 1-555)
Description: as §1

[9] = test system: Balb/c mice exposed to acute treatment with Oxaliplatin; assay: Cold plate test after a single oxaliplatin administration; type: in vivo, mouse; details: 48 hours after single OXA 3.5 mg/kg iv, DTG 4 mg/kg ip 1 hour before
Description: OXA vehicle, OXA, CPC, DTG, DTG+OXA and CPC+OXA were administered once time. In the group co-administered with OXA and DTG. DTG was injected intraperitoneally 1 hour before the administration of OXA. In the group co-administered with OXA and CPC, CPC was co-administered with OXA intravenously. Mechanical allodynia and cold sensory threshold (dynamic test and cold plate test) were performed 24 and 48 hours after the treatment, respectively, using the methods described in EXAMPLE 15 Plasma Sample Collection

[10] = 14-week toxicity study in monkey, females, PMDA 2012, cited from earlier work

| Structure (SMILES) | inhibition selectivity between OCT2 and MATE1, metformin as substrate [1] | caudal nerve action potential amplitude ([2]; listed as BFMD) | caudal nerve conduction velocity ([2]; listed as BFMD) | caudal nerve action potential amplitude ([2]; listed as buflomedil) | caudal nerve conduction velocity ([2]; listed as buflomedil) | nerve injury assessed by caudal NCV ([2]; buflomedil 80 mg/kg po 2 hours before OXA, 8 cycles, n=3/group) | Inhibition % @ 20 μM (substrate ASP+) [3] | Plasma peak unbound concentration Cmax,u [4] | IC50 ([5]; Canis lupus familiaris, MDCK, read-out: IC50 for reduction of oxaliplatin-induced cytotoxicity) | reduction of cytotoxicity of 100 μM oxaliplatin ([5]; buflomedil 3-1000 μM, LDH release, FIG. 5) | effect on oxaliplatin induced cytotoxicity in OCT2 expressing cells [5] | IC50 [6] | IC50 [7] | selectivity ratio [8] | cold allodynia, cold plate [9] | cold allodynia, cold plate ([9]; listed as DTG) | mean plasma Cmax at the NOAEL dose [10] | Cmax ([10]; read-out: mean plasma Cmax at the NOAEL dose) |
| --- | --- | --- | --- | --- | --- | --- | --- | --- | --- | --- | --- | --- | --- | --- | --- | --- | --- | --- |
| COc1cc(OC)c(C(=O)CCCN2CCCC2)c(OC)c1 [Buflomedil, 4-pyrrolidin-1-yl-1-(2,4,6-trimethoxyphenyl)butan-1-one] | no inhibition selectivity between OCT2 and MATE1 | no statistically significant difference among CTRL. BFMD and OXA+BFMD groups | small but statistically significant increase when compared to OXA alone | effective on reducing peripheral neurotoxicity | effective on reducing peripheral neuropathy | effective on reducing nerve injury; also recorded: showed protective effects against OXAIPN | 104% | 2.04 µM | 6 µM | reduced cytotoxicity of 100 μM Oxaliplatin in OCT2-expressing cells in a dose-dependent fashion | significantly reduced oxaliplatin (OXA) induced cytotoxicity | 32.7 ± 5.4 µM | 84 ± 23.1 µM | > 10 | – | – | – | – |
| C[C@@H]1CCO[C@H]2Cn3cc(C(=O)NCc4ccc(F)cc4F)c(=O)c(O)c3C(=O)N12 [Dolutegravir] | – | – | – | – | – | – | – | 0.05 µM | – | – | significantly reduced oxaliplatin (OXA) induced cytotoxicity | – | – | ≥ 10 | effective on reducing cold hypersensitivity | protects the animal from cold allodynia | 23500 ng/mL | 54.8 µM |
| Clc1ccc(COC(Cn2ccnc2)c2ccc(Cl)cc2Cl)c(Cl)c1 (stereo not drawn) [Miconazole] | – | – | – | – | – | – | 91% | – | – | – | – | > 100 µM | > 100 µM | – | – | – | – | – |
